Laboratory results reported in the supplement of paper PMC10307832.

What was measured:
Experiment in all cases: relative viability (nuclei count vs DMSO), 5 days (fraction); higher = more cells survive
[1] = compound: CCN1C(=O)C2=CC(=C(N=C2N(C1=O)C3CC3)N)C(=O)N + CS(=O)(=O)CCNCc1ccc(-c2ccc3ncnc(Nc4ccc(OCc5cccc(F)c5)c(Cl)c4)c3c2)o1 [Lapatinib] (partner 2 µM)
Method in brief: (§1)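 After 5 days of treatment, lung cancer cells in 1536-well plates were fixed and stained in a single step (final 0.05% Triton X-100, 1% formaldehyde, 1 ug/ml Hoechst) and their nuclei counted on 4× images. Treatment had been applied by pin tool the day after seeding as one drug alone or as a fixed anchor-drug dose with five library-drug doses (not always all listed) in √10 steps. Relative viability is the nuclei count of treated wells divided by that of vehicle wells, and values are medians of duplicate plates.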

[2] = compound: CCN1C(=O)C2=CC(=C(N=C2N(C1=O)C3CC3)N)C(=O)N + Cc1nc(NC(=O)N2CCC[C@H]2C(N)=O)sc1-c1ccnc(C(C)(C)C(F)(F)F)c1 [Alpelisib] (partner 2 µM)
Method in brief: as §1

[3] = compound: CCN1C(=O)C2=CC(=C(N=C2N(C1=O)C3CC3)N)C(=O)N + N=C(N)NC(=N)NCCc1ccccc1 [Phenformin] (partner 250 µM)
Method in brief: as §1

[4] = compound: CCN1C(=O)C2=CC(=C(N=C2N(C1=O)C3CC3)N)C(=O)N + NC(=O)Nc1cc(-c2cccc(F)c2)sc1C(=O)N[C@H]1CCCNC1 [AZD7762] (partner 0.2 µM)
Method in brief: as §1

[5] = compound: CCN1C(=O)C2=CC(=C(N=C2N(C1=O)C3CC3)N)C(=O)N + Cc1nc(Nc2ncc(C(=O)Nc3c(C)cccc3Cl)s2)cc(N2CCN(CCO)CC2)n1 [Dasatinib] (partner 0.075 µM)
Method in brief: as §1

| Cell Line | relative viability ([1]; first compound 0.253 µM) | relative viability ([1]; first compound 0.8 µM) | relative viability ([1]; first compound 2.53 µM) | relative viability ([1]; first compound 8 µM) | relative viability ([2]; first compound 0.253 µM) | relative viability ([2]; first compound 0.8 µM) | relative viability ([2]; first compound 2.53 µM) | relative viability ([2]; first compound 8 µM) | relative viability ([3]; first compound 0.253 µM) | relative viability ([3]; first compound 0.8 µM) | relative viability ([3]; first compound 2.53 µM) | relative viability ([3]; first compound 8 µM) | relative viability ([4]; first compound 0.253 µM) | relative viability ([4]; first compound 0.8 µM) | relative viability ([4]; first compound 2.53 µM) | relative viability ([4]; first compound 8 µM) | relative viability ([5]; first compound 0.253 µM) | relative viability ([5]; first compound 2.53 µM) | relative viability ([5]; first compound 8 µM) | relative viability ([5]; first compound 0.8 µM) |
| --- | --- | --- | --- | --- | --- | --- | --- | --- | --- | --- | --- | --- | --- | --- | --- | --- | --- | --- | --- | --- |
| HCC-44 | 0.927 | 1.01 | 1.03 | 0.986 | 0.829 | 0.802 | 0.778 | 0.784 | 0.296 | 0.18 | 0.277 | 0.185 | 1.03 | 0.993 | 0.977 | 0.991 |  |  |  |  |
| HCC-78 | 0.581 | 0.626 | 0.937 | 0.719 | 0.299 | 0.337 | 0.31 | 0.467 | 0.747 |  | 0.75 | 0.685 | 0.56 | 0.592 | 0.626 | 0.735 | 0.368 | 0.595 | 0.365 |  |
| IA-LM | 0.877 | 0.902 | 0.88 | 0.747 | 0.743 | 0.816 | 0.584 | 0.696 |  |  |  |  |  |  |  |  |  |  |  |  |
| LCLC-103H |  |  |  |  | 0.935 | 0.962 | 0.907 | 0.934 | 0.341 | 0.305 | 0.291 | 0.364 | 0.76 | 0.83 | 0.768 | 0.838 | 0.453 | 0.457 | 0.445 | 0.426 |
| NCI-H441 |  |  |  |  | 0.957 | 0.756 | 0.637 | 0.598 | 0.762 | 0.85 | 0.78 | 0.833 | 0.892 | 1.29 | 1.2 | 1.1 | 0.734 | 0.728 | 0.683 | 0.585 |
| NCI-H520 | 0.898 | 0.907 | 0.957 | 0.941 | 0.89 | 0.765 | 0.962 | 0.923 | 0.582 | 0.643 | 0.59 | 0.508 |  |  |  |  | 0.17 | 0.222 | 0.31 | 0.222 |
| NCI-H522 |  |  |  |  |  |  |  |  | 0.552 | 0.565 | 0.705 | 0.546 | 0.726 | 0.735 | 0.952 | 0.922 | 0.761 | 0.992 | 0.753 | 0.858 |
| NCI-H661 | 0.526 | 0.631 | 0.428 | 0.5 | 0.711 | 0.78 | 0.742 | 0.778 | 0.287 | 0.302 | 0.267 | 0.278 |  |  |  |  | 0.911 | 0.898 | 0.895 | 0.911 |
| NCI-H1650 | 0.337 | 0.815 | 0.746 | 0.904 |  |  |  |  | 0.47 | 0.4 | 0.367 | 0.379 |  |  |  |  | 0.279 | 0.308 | 0.329 | 0.264 |
